Assay results published in US12016874B2, “Methods and compositions for treating carbapenem-resistant klebsiella pneumoniae infections” (City University of Hong Kong, priority 2022, dated 2024).
Converted amounts (≈) assume the structure as drawn. Where two headings read alike, the source gives them in different places.

Legend:
14WZ-43 = assay: MIC determination according to CLSI guidelines; format: cell-based, K. pneumoniae; settings: Klebsiella pneumoniae, drug alone
Procedure: (§1) Bacterial strains grown on MH agar plates were resuspended in sterilized 0.85% sodium chloride solution. […] All tested culture media were finally cultured at 37° C. for 16 hours. E. coli ATCC25922 and K. pneumoniae MGH78578 in Table 1 were used as reference control bacteria.
(§2) See Table 2 and Table 2-1 below for details.

14WZ-44 = assay: MIC determination according to CLSI guidelines; format: cell-based, K. pneumoniae; settings: Klebsiella pneumoniae; 14WZ-44 (CRKP); drug alone
Procedure: as §1, §2

14WZ-45 = assay: MIC determination according to CLSI guidelines; format: cell-based, K. pneumoniae; settings: Klebsiella pneumoniae, drug alone
Procedure: as §1, §2

14WZ-51 = assay: MIC determination according to CLSI guidelines; format: cell-based, K. pneumoniae; settings: Klebsiella pneumoniae, drug alone
Procedure: as §1, §2

14WZ-52 = assay: MIC determination according to CLSI guidelines; format: cell-based, K. pneumoniae; settings: Klebsiella pneumoniae, drug alone
Procedure: as §1, §2

15WZ-68 = assay: MIC determination according to CLSI guidelines; format: cell-based, K. pneumoniae; settings: Klebsiella pneumoniae, drug alone
Procedure: as §1, §2

15WZ-88 = assay: MIC determination according to CLSI guidelines; format: cell-based, K. pneumoniae; settings: Klebsiella pneumoniae, drug alone
Procedure: as §1, §2

16WZ-134 = assay: MIC determination according to CLSI guidelines; format: cell-based, K. pneumoniae; settings: Klebsiella pneumoniae, drug alone
Procedure: as §1, §2

16ZR-10 = assay: MIC determination according to CLSI guidelines; format: cell-based, K. pneumoniae; settings: Klebsiella pneumoniae, drug alone
Procedure: as §1, §2

16ZR-33 = assay: MIC determination according to CLSI guidelines; format: cell-based, K. pneumoniae; settings: Klebsiella pneumoniae, drug alone
Procedure: as §1, §2

16ZR-58 = assay: MIC determination according to CLSI guidelines; format: cell-based, K. pneumoniae; settings: Klebsiella pneumoniae, drug alone
Procedure: as §1, §2

16ZR-93 = assay: MIC determination according to CLSI guidelines; format: cell-based, K. pneumoniae; settings: Klebsiella pneumoniae, drug alone
Procedure: as §1, §2

17ZR-31 = assay: MIC determination according to CLSI guidelines; format: cell-based, K. pneumoniae; settings: Klebsiella pneumoniae, drug alone
Procedure: as §1, §2

17ZR-61 = assay: MIC determination according to CLSI guidelines; format: cell-based, K. pneumoniae; settings: Klebsiella pneumoniae, drug alone
Procedure: as §1, §2

17ZR-63 = assay: MIC determination according to CLSI guidelines; format: cell-based, K. pneumoniae; settings: Klebsiella pneumoniae, drug alone
Procedure: as §1, §2

17ZR-75 = assay: MIC determination according to CLSI guidelines; format: cell-based, K. pneumoniae; settings: Klebsiella pneumoniae, drug alone
Procedure: as §1, §2

CR-HvKP 1 [1] = assay: MIC determination according to CLSI guidelines; format: cell-based, K. pneumoniae; settings: Klebsiella pneumoniae, drug alone
Procedure: as §1, §2

CR-HvKP 2 = assay: MIC determination according to CLSI guidelines; format: cell-based, K. pneumoniae; settings: Klebsiella pneumoniae, drug alone
Procedure: as §1, §2

CR-HvKP 3 = assay: MIC determination according to CLSI guidelines; format: cell-based, K. pneumoniae; settings: Klebsiella pneumoniae, drug alone
Procedure: as §1, §2

CR-HvKP 5 = assay: MIC determination according to CLSI guidelines; format: cell-based, K. pneumoniae; settings: Klebsiella pneumoniae, drug alone
Procedure: as §1, §2

E. coli ATCC25922 = assay: MIC determination according to CLSI guidelines; format: cell-based; settings: Escherichia coli, drug alone
Procedure: as §1, §2

K. pneumoniae MGH78578 = assay: MIC determination according to CLSI guidelines; format: cell-based; settings: Klebsiella pneumoniae, drug alone
Procedure: as §1, §2

CR-HvKP 1 [2] = settings: for Viability (%): CR-HvKP 1 infected ICR mice; for mortality rate of mice: oral gavage every 12 hours
Procedure: The ICR mice were injected with 3×10^7 CFU of CR-HvKP 1 intraperitoneally to create sepsis infection models.

CR-HvKP 1 [3] = assay: microbe, parasite or virus in culture; format: cell-based, K. pneumoniae; settings: Klebsiella pneumoniae, read-out: MIC after serial passage with incremental drug concentrations
Procedure: The principle of this experiment is that sub-inhibitory concentrations of antibiotics will induce drug-resistant mutations of bacteria.
Materials and methods: CR-HvKP 1 was selected as the representative strain. […] After 24 hours of culture, the culture possibly containing drug-resistant mutant bacteria was diluted 1:100 into fresh LB medium containing 2-fold concentration of drugs. This continuous transfer was repeated for six generations, i.e. the experiment was conducted for six days (the concentration on the second day was twice that on the first day, with daily increment).

HepG2 cells = assay: MTT experiment; settings: MTT assay
E. coli = assay: Screening of FDA-approved drug library; format: cell-based; settings: drug library screen
P. aeruginosa = assay: Screening of FDA-approved drug library; format: cell-based; settings: drug library screen
K. pneumoniae = assay: Screening of FDA-approved drug library; format: cell-based; settings: drug library screen
[4] = biological target: T1, K. pneumoniae RNA polymerase (Klebsiella pneumoniae subsp. pneumoniae, UniProt A6TGP0+A6TGP1); assay: ITC assay; format: binding; settings: 25° C.
T1 construct: made in house; host or cells: E. coli BL21(DE3)
T1 sequence (A6TGP1 whole entry): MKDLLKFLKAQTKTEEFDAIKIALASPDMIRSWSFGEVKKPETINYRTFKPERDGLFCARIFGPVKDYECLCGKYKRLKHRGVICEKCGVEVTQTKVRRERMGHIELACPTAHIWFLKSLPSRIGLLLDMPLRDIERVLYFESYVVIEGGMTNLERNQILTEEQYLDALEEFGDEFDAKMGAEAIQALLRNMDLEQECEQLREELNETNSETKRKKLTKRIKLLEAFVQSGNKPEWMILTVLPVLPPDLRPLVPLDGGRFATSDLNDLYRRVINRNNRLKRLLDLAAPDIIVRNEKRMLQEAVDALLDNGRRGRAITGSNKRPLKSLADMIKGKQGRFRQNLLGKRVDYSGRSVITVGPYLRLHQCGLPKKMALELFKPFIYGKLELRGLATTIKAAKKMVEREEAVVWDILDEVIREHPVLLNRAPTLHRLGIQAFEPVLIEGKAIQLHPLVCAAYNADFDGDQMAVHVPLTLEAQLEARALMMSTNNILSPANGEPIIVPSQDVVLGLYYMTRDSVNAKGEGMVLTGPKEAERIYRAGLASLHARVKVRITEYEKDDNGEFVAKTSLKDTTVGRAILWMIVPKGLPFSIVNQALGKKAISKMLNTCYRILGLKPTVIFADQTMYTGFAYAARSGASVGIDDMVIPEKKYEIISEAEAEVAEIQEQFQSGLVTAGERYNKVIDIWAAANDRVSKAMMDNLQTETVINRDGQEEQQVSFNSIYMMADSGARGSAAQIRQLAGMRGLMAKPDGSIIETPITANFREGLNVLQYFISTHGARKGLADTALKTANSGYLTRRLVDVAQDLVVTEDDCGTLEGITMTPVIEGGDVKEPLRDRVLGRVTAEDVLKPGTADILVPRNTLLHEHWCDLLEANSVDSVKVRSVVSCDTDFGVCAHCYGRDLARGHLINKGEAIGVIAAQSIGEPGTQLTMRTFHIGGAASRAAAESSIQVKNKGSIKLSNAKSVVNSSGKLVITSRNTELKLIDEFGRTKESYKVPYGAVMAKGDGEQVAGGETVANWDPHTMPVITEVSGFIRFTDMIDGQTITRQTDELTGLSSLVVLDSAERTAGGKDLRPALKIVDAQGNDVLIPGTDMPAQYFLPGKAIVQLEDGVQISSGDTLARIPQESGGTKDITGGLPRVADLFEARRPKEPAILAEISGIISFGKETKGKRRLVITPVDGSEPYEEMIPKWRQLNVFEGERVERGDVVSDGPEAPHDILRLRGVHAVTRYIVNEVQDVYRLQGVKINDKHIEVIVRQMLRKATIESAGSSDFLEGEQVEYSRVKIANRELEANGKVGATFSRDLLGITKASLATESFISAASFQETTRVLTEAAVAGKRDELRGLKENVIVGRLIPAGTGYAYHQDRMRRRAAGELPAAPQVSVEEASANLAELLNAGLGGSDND
T1 sequence (A6TGP0 whole entry): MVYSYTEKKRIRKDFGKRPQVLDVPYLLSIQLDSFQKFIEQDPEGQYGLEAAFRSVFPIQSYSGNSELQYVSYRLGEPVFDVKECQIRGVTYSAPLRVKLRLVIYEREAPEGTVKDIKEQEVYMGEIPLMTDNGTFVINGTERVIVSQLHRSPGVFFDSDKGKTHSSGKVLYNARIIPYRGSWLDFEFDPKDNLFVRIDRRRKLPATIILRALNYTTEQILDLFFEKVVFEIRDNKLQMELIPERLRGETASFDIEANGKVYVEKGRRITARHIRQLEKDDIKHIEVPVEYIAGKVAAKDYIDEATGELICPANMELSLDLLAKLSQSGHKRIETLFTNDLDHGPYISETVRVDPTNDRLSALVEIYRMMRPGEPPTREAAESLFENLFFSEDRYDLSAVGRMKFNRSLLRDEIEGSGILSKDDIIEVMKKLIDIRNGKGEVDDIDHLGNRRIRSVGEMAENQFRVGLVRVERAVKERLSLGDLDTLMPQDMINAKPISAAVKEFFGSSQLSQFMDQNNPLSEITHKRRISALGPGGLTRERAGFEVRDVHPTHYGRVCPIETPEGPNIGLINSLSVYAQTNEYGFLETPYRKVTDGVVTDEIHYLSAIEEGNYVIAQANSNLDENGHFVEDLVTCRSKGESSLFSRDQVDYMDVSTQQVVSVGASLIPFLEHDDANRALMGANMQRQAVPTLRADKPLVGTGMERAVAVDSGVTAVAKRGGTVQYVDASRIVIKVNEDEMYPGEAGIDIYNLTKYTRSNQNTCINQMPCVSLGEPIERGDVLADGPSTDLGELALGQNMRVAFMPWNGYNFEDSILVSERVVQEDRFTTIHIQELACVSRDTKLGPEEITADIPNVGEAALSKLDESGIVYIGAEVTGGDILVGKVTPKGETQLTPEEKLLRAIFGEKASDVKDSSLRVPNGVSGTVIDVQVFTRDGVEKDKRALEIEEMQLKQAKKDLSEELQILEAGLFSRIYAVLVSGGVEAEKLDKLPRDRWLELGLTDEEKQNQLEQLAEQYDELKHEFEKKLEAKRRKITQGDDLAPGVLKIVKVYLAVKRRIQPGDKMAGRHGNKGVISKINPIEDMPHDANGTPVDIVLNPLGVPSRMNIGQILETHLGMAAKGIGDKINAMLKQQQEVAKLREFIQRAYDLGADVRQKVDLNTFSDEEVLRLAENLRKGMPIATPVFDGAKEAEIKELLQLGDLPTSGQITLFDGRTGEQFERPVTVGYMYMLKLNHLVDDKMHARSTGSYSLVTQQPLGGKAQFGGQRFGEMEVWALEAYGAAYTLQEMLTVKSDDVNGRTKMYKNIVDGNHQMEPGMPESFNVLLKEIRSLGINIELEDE
T1 sequence (A6TEU8 whole entry, further chain): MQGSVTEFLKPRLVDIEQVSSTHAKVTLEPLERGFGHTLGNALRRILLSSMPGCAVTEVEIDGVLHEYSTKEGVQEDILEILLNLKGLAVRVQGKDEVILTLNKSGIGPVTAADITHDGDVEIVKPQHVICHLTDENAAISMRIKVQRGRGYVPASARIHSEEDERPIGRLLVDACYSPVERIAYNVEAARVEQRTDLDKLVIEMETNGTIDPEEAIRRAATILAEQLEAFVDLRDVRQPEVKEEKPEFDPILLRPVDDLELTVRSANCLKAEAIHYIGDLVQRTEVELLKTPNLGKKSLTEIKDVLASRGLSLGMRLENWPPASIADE
Source text: We successfully co-expressed the subunits of K. pneumoniae RNAp to prepare the required core enzyme by a dual plasmids expression system, pACYC-Duet and pET-Duet. The method is briefly described as follows:
Recombinant plasmids containing different subunits of RNAP (rpoA, rpoB, rpoC, rpoD, rpoZ) were constructed using the Gibson assembly method. First, all the required fragments were obtained by PCR amplification from the K. pneumoniae MGH78578 genome and two Duet plasmids, respectively. All fragments, Gibson Assembly Master Mix (NEB, #E2611S) and deionized water were then mixed and incubated at 50° C. for 60 minutes. The recombinant plasmids were transformed into E. coli DH5α by heat shock method. After verification via sequencing, the recombinant plasmids were then transformed into E. coli BL21(DE3). Plasmids pACYC Duet rpoA-rpoZ-Amp (encoding […]) and pET Duet rpoB-rpoC-Kana (encoding β and β′ subunits) were transformed together into E. coli BL21 to prepare RNA core polymerase by in vivo assembly. The σ factor σ subunit was obtained by overexpression of E. coli BL21 containing the plasmid pET-Duet-rpoD-Kana alone. The recombinant bacteria were first cultured in LB agar containing 50 μg/mL of kanamycin and 100 μg/mL of ampicillin and then inoculated into LB broth containing the same concentration of antibiotics at 37° C., 250 rpm. After the bacterial turbidity reached an OD600 of 0.6, 0.5 mM IPTG was added and cultured at 16° C., 200 rpm for 16 hours. Cells were harvested by centrifugation (5000 rpm, 20 minutes at 4° C.). The protein was then purified by affinity chromatography. To further obtain bacterial RNAp holoenzyme, RNAp core enzyme was incubated with sigma subunits at a molar ratio of 1:1 at 37° C. for 15 minutes and then used for subsequent ITC assays.
The test was performed at 25° C. using a Malvern MicroCal PEAQ-ITC automatic ultrasensitive isothermal titration calorimeter (MicroCal (Malvern Instruments), Malvern, UK). […] The solution was stirred at 750 rpm. MicroCal PEAQ-ITC analysis software was used to fit the data to a one site binding model.

CR-HvKP 1 [5] = assay: String test on sheep blood agar; format: cell-based, K. pneumoniae; settings: drug alone
Procedure: 1. A series of tests were performed according to the following process. CR-HvKP 1 was inoculated onto the agar plate containing 5% sheep blood and different drugs and cultured overnight at 37° C. The series test refers to a test in which viscous strings greater than 5 mm in length are formed when a single colony is stretched with a standard bacteriological inoculating loop, which can be considered a virulent strain of a high-viscosity phenotype.

CR-HvKP 1 [6] = assay: Mucoviscosity assay; format: cell-based, K. pneumoniae; settings: drug alone, OD600 of supernatant
Procedure: 2. Mucoviscosity assay: The overnight culture of CR-HvKP 1 was re-inoculated into fresh LB broth to produce a bacterial broth with an OD600 of 0.3. Different drugs were then added and cultured with shaking at 37° C. for 6 hours. The culture was then diluted to an OD600 of 1.0 and centrifuged at 1,000×g for 2 minutes before the supernatant was obtained for OD600 measurement.

rmpA2 = assay: Virulence gene expression by qRT-PCR; format: cell-based, K. pneumoniae; settings: drug alone
CR-HvKP 1 [7] = settings: 20 μg/mL zidovudine

Procedure for red blood cells (RBCs): In-vitro method: Hemolysis experiment: The blood from fresh ICR mice was collected by cardiac blood withdrawal, preserved in K2-EDTA tubes (BD Vacultainer® K2 EDTA, Becton-Dickinson) and temporarily stored at 4° C. The whole blood sample was centrifuged (500 g, 10 minutes) to remove plasma, and then washed three times with PBS buffer. After the last washing, 100 μL of the remaining red blood cells (RBCs) were carefully aspirated from the bottom and diluted with 4.9 mL PBS buffer to prepare a 2% blood solution. […] 50 μL of diluted RBCs were mixed with 100 μL of milli-Q H20 (100% hemolysis) or 100 μL of drug-free PBS as positive and negative controls, respectively. It should be noted that rifampicin itself was red, so the absorbance of PBS with different concentrations of the drug was used as background correction in the calculation. The mixture was mixed gently and incubated at 37° C. for 30 minutes. 80 μL of supernatant was obtained by centrifugation at 2000×g for 6 minutes, and the optical density of the supernatant at 541 nm was measured with a microplate reader (SpectraMax 190, Moleclar Devices).

| Structure (SMILES) | MIC (14WZ-43) [µg/mL] | MIC (14WZ-44) [µg/mL] | MIC (14WZ-45) [µg/mL] | MIC (14WZ-51) [µg/mL] | MIC (14WZ-52) [µg/mL] | MIC (15WZ-68) [µg/mL] | MIC (15WZ-88) [µg/mL] | MIC (16WZ-134) [µg/mL] | MIC (16ZR-10) [µg/mL] | MIC (16ZR-33) [µg/mL] | MIC (16ZR-58) [µg/mL] | MIC (16ZR-93) [µg/mL] | MIC (17ZR-31) [µg/mL] | MIC (17ZR-61) [µg/mL] | MIC (17ZR-63) [µg/mL] | MIC (17ZR-75) [µg/mL] | MIC (CR-HvKP 1 [1]) [µg/mL] | MIC (CR-HvKP 2) [µg/mL] | MIC (CR-HvKP 3) [µg/mL] | MIC (CR-HvKP 5) [µg/mL] | other results |
| --- | --- | --- | --- | --- | --- | --- | --- | --- | --- | --- | --- | --- | --- | --- | --- | --- | --- | --- | --- | --- | --- |
| CO[C@H]1/C=C/O[C@@]2(C)Oc3c(C)c(O)c4c(O)c(c(/C=N/N5CCN(C)CC5)c(O)c4c3C2=O)NC(=O)/C(C)=C\C=C\[C@H](C)[C@H](O)[C@@H](C)[C@@H](O)[C@@H](C)[C@H](OC(C)=O)[C@@H]1C [rifampicin] | 32 (≈ 38.9 µM) | 32 (≈ 38.9 µM) | 16 (≈ 19.4 µM) | 32 (≈ 38.9 µM) | 32 (≈ 38.9 µM) | 32 (≈ 38.9 µM) | 16 (≈ 19.4 µM) | 32 (≈ 38.9 µM) | 32 (≈ 38.9 µM) | 16 (≈ 19.4 µM) | 32 (≈ 38.9 µM) | > 64 | 32 (≈ 38.9 µM) | 32 (≈ 38.9 µM) | 32 (≈ 38.9 µM) | 64 (≈ 77.8 µM) | 32 (≈ 38.9 µM) | 32 (≈ 38.9 µM) | 32 (≈ 38.9 µM) | 32 (≈ 38.9 µM) | MIC (E. coli ATCC25922): 8 µg/mL (≈ 9.72 µM); MIC (K. pneumoniae MGH78578): 32 µg/mL (≈ 38.9 µM); Viability (%) (CR-HvKP 1 [2]; ZDV 0 mg/kg + RIF 8 mg/kg): 30%; mortality rate of mice (CR-HvKP 1 [2]; rifampicin 8 mg/kg only, in 72 hours): 66%; MIC (CR-HvKP 1 [3]): 4100 µg/mL (≈ 4980 µM); hemolysis (red blood cells (RBCs)): low level; HepG2 cell lysis (HepG2 cells): low level |
| Cc1cn([C@H]2C[C@H](N=[N+]=[N-])[C@@H](CO)O2)c(=O)[nH]c1=O [zidovudine] | 2.5 (≈ 9.35 µM) | 2.5 (≈ 9.35 µM) | 2.5 (≈ 9.35 µM) | 2.5 (≈ 9.35 µM) | 1.25 (≈ 4.68 µM) | 2.5 (≈ 9.35 µM) | 2.5 (≈ 9.35 µM) | > 20 | 0.625 (≈ 2.34 µM) | 5 (≈ 18.7 µM) | 2.5 (≈ 9.35 µM) | > 20 | 2.5 (≈ 9.35 µM) | 1.25 (≈ 4.68 µM) | 1.25 (≈ 4.68 µM) | 5 (≈ 18.7 µM) | 2.5 (≈ 9.35 µM) | 2.5 (≈ 9.35 µM) | 2.5 (≈ 9.35 µM) | 5 (≈ 18.7 µM) | MIC (E. coli ATCC25922): 0.625 µg/mL (≈ 2.34 µM); MIC (K. pneumoniae MGH78578): 5 µg/mL (≈ 18.7 µM); antibacterial effect (E. coli): exhibited antibacterial effect; antibacterial effect (P. aeruginosa): exhibited antibacterial effect; antibacterial effect (K. pneumoniae): exhibited antibacterial effect; Viability (%) (CR-HvKP 1 [2]; ZDV 10 mg/kg + RIF 0 mg/kg): 0%; mortality rate of mice (CR-HvKP 1 [2]; zidovudine 10 mg/kg only, in 36 hours): 100%; MIC (CR-HvKP 1 [3]): 1280 µg/mL (≈ 4790 µM); enthalpy (ΔH) [4]: -80.1 ± 124 kcal/mol; reaction stoichiometry (N sites) [4]: 0.239±0.273; Kd ([4]; one site binding model): 7.8 µM; string length (CR-HvKP 1 [5]): reduce; hypermucoviscosity (CR-HvKP 1 [6]): reduce; expression of bacterial virulence factor rmpA2 (rmpA2): inhibition; population size of CR-HvKP 1 in time-kill curve (CR-HvKP 1 [7]): reduced in the first 4 hours and then re-grew to reach the same size as no treatment control at 24 hours; HepG2 cell lysis (HepG2 cells): low level |
